Test results from US5506217A, “Phosphonates as anti-cancer agents” (The University of British Columbia, priority 1994, dated 1996).

What was measured:
P388 tumor cells = assay: colonogenic cell survival assay; assay type: cell-based; details: Mus musculus, 120 h, P388, read-out: Colonies formed after 5 days (% of control)
Description: (§1) Inhibition of colony formation in soft agar medium (colonogenic cell survival assay) is a more rigorous and direct measurement of cell kill or growth inhibition, and reflects the anti-cancer activity of the test compound. Briefly, tumor cells were cultured in petri dishes in methylcellulose, with or without a phosphonate test compound, and the number of colonies formed during a 5-day incubation period were counted.
The efficacy of 4-hexadecylthio-3-methoxybutane phosphonocholine on the growth of a mouse […] tumor was evaluated. The P388 cell line was cultured in a soft agar in the presence and absence of various concentrations of thioalkylphosphonate for 5 days, the number of tumor colonies formed during this period of time was registered.

L1210 tumor cells = assay: colonogenic cell survival assay; assay type: cell-based; details: Mus musculus, 120 h, L1210, read-out: Colonies formed after 5 days (% of control)
Description: as §1
The effectiveness of S-thioalkylphosphonate on the growth of a lymphoma cell line was also investigated. L1210 is a mouse B-Cell tumor (lymphoma), was tested in soft agar for susceptibility to the cytotoxic action of thioalkylphosphonate.

WEHI-3B tumor cells [1] = assay: colonogenic cell survival assay; assay type: cell-based; details: Mus musculus, WEHI3B, 120 h, WEHI-3B, read-out: Colonies formed after 5 days (% of control)
Description: as §1
Table 17 tabulates data obtained with two differrent phosphonate analogs using a colonogenic assay. Colonogenic assay is one of the most trusted tests for determination of effectiveness of an anti-cancer agent. The test is based on the formation of tumor colonies in vitro in a methyl cellulose or soft agar medium. The following results were obtained with the formation of colonies in methyl cellulose medium after five days in the presence or absence of four phosphonate analogs, two with a thioalkyl chain and two with an alkyloxy chain.

WEHI-3B tumor = WEHI-3B tumor growth in BALB/C mice; assay type: in vivo; details: for Tumor volume in cm^3: 500 μg (approx. 25 mg/Kg) daily IM
Description: After 3 days one group (n=5) of mice received 500 μg (approximately 25 mg/Kg body weight) of the phosphonate compound of the following formula daily by intramuscular (IM) injection. The size of the resulting tumor was measured using a caliper: [drawing 17]

WEHI-3B tumor cells [2] = assay: 3H-thymidine incorporation assay; assay type: cell-based; details: Mus musculus, WEHI3B, read-out: Thymidine uptake (% of control)
Description: (§2) Experiments were performed using a number of different rumor cell lines. Tumor cells were cultured in RPMI-1640 medium supplemented with 10% fetal bovine serum, penicillin (50 units/mL), streptomycin (50 μg/mL) and mercaptoethanol (5 μg/mL) in an atmosphere of 5% CO2. The cells were passaged weekly by serial 1/10 to 1/10,000 dilutions. The cell viability and growth were constantly monitored by staining with trypan blue exclusion dye or the incorporation of tritiated thymidine.
(§3) Inhibition of ^3 H-thymidine incorporation into the DNA of cells by a test compound is an indirect measurement of cell kill or growth inhibition, and reflects the anti-cancer activity of the compound.
Tumor cells (2×104 ^4 cells/well) were placed in 200 μL of medium in 96-well plastic microtiter plates; a further 5 μL of medium either with or without phosphonate was added. […] The cells were then harvested using a Brandel cell harvester (model M-12) and collected on Whatman glass microfilters. The radioactivity associated with the filters was quantified in a liquid scintillation counter, and the amount of ^3 H-thymidine incorporated into tumor cells treated with the phosphonate compound was calculated as a percentage of the amount of ^3 H-thymidine incorporated into untreated tumor cells.
The biological activities of 4-hexadecylthio-3(S ) -3-methoxybutane-l-phosponocholine and its enantiomer 4-hexadecylthio-3(R)-3-methoxybutane-1-phosphonocholine were studied on several cancer cell lines. […] The cell viability, was determined as percent[^3 H]thymidine uptake into the cell DNA. The following results are mean of five samples ± S.D.

C-41 tumor cells = assay: 3H-thymidine incorporation assay; assay type: cell-based; details: Homo sapiens, read-out: Thymidine uptake (% of control)
Description: as §2, §3
Tumor cells (2×104 ^4 cells/well) were placed in 200 μL of medium in 96-well plastic microtiter plates; a further 5 μL of medium either with or without phosphonate was added. After incubation for 24, 48 or 72 hours at 37° C. in a humidified atmosphere containing 5% CO2, the wells were pulsed with 0.1 μCi of ^3 H-thymidine for an additional 24 hours. The cells were then harvested using a Brandel cell harvester (model M-12) and collected on Whatman glass microfilters. The radioactivity associated with the filters was quantified in a liquid scintillation counter, and the amount of ^3 H-thymidine incorporated into tumor cells treated with the phosphonate compound was calculated as a percentage of the amount of ^3 H-thymidine incorporated into untreated tumor cells.
It has been discovered that a phosphonate compound of the following structure: [drawing 21] inhibits thymidine incorporation into DNA of a human cervical carcinoma (C-41 ) cell line. This effect is indicative of the anti-cancer activity of the above compound.

[3] = tested on: Lewis lung carcinoma cells; assay: LLC tumor growth in BALB/C mice; assay type: in vivo; details: for Tumor volume (mm^3): 50 mg/day orally once a day from day 3
Description: BALB/C mice were injected with […] lung carcinoma cells under the skin at the back. Three days after injection of the rumor cells, treatment with the phosphonate shown above (compound VI) (50 mg/day orally once a day) was initiated in one group of mice, while a second group of mice received only the carrier, mucilage of tragacanth.

Compound: CCCCCCCCCCCCCCCCOCC(CP(=O)([O-])OCC[N+](C)(C)C)OC (centres unmarked) [compound VII]
- activity at 1.25 µM (P388 tumor cells; 1.25 μM): 88 ± 6%
- activity at 2.5 µM (P388 tumor cells; 2.5 μM): 79 ± 8%
- activity at 5 µM (P388 tumor cells; 5 μM): 61 ± 7%
- activity at 10 µM (P388 tumor cells; 10 μM): 56 ± 7%
- activity at 20 µM (P388 tumor cells; 20 μM): 29 ± 4%
- activity at 40 µM (P388 tumor cells; 40 μM): 16 ± 2%
- activity at 1.25 µM (L1210 tumor cells; 1.25 μM): 91 ± 7%
- activity at 2.5 µM (L1210 tumor cells; 2.5 μM): 80 ± 11%
- activity at 5 µM (L1210 tumor cells; 5 μM): 55 ± 4%
- activity at 10 µM (L1210 tumor cells; 10 μM): 42 ± 5%
- activity at 20 µM (L1210 tumor cells; 20 μM): 22 ± 3%
- activity at 40 µM (L1210 tumor cells; 40 μM): 14 ± 5%
- activity at 1.25 µM (WEHI-3B tumor cells [1]; 1.25 μM): 88%
- activity at 2.5 µM (WEHI-3B tumor cells [1]; 2.5 μM): 60%
- activity at 5 µM (WEHI-3B tumor cells [1]; 5 μM): 48%
- activity at 10 µM (WEHI-3B tumor cells [1]; 10 μM): 34%
- activity at 20 µM (WEHI-3B tumor cells [1]; 20 μM): 13%
- activity at 40 µM (WEHI-3B tumor cells [1]; 40 μM): 2%
- effect on tumor growth (in words) (WEHI-3B tumor; 25 mg/Kg body weight per day, intramuscularly): delayed the onset of tumor growth and reduced the tumor growth significantly
- Tumor volume in cm^3 (WEHI-3B tumor; day 3 after implantation): 0.000 ± 0.000 cm^3
- Tumor volume in cm^3 (WEHI-3B tumor; day 15 after implantation): 0.000 ± 0.000 cm^3
- Tumor volume in cm^3 (WEHI-3B tumor; day 17 after implantation): 0.000 ± 0.000 cm^3
- Tumor volume in cm^3 (WEHI-3B tumor; day 20 after implantation): 0.036 ± 0.010 cm^3
- Tumor volume in cm^3 (WEHI-3B tumor; day 22 after implantation): 0.117 ± 0.017 cm^3
- Tumor volume in cm^3 (WEHI-3B tumor; day 24 after implantation): 0.172 ± 0.025 cm^3

Compound: CCCCCCCCCCCCCCCCCCOCC(CCP(=O)([O-])OCC[N+](C)(C)C)OC (centres unmarked) [compound VI]
- activity at 1.25 µM (WEHI-3B tumor cells [2]; 24 h, Day 1): 95%
- activity at 2.5 µM (WEHI-3B tumor cells [2]; 24 h, Day 1): 72%
- activity at 5 µM (WEHI-3B tumor cells [2]; 24 h, Day 1): 34%
- activity at 10 µM (WEHI-3B tumor cells [2]; 24 h, Day 1): 18%
- activity at 20 µM (WEHI-3B tumor cells [2]; 24 h, Day 1): 8%
- activity at 40 µM (WEHI-3B tumor cells [2]; 24 h, Day 1): 3%
- activity at 1.25 µM (WEHI-3B tumor cells [2]; 48 h, Day 2): 84%
- activity at 2.5 µM (WEHI-3B tumor cells [2]; 48 h, Day 2): 67%
- activity at 5 µM (WEHI-3B tumor cells [2]; 48 h, Day 2): 22%
- activity at 10 µM (WEHI-3B tumor cells [2]; 48 h, Day 2): 13%
- activity at 20 µM (WEHI-3B tumor cells [2]; 48 h, Day 2): 2%
- activity at 40 µM (WEHI-3B tumor cells [2]; 48 h, Day 2): 2%
- activity at 1.25 µM (WEHI-3B tumor cells [2]; 72 h, Day 3): 77%
- activity at 2.5 µM (WEHI-3B tumor cells [2]; 72 h, Day 3): 54%
- activity at 5 µM (WEHI-3B tumor cells [2]; 72 h, Day 3): 12%
- activity at 10 µM (WEHI-3B tumor cells [2]; 72 h, Day 3): 10%
- activity at 20 µM (WEHI-3B tumor cells [2]; 72 h, Day 3): 1%
- activity at 40 µM (WEHI-3B tumor cells [2]; 72 h, Day 3): 2%
- activity at 2.5 µM (C-41 tumor cells; C4-1, 2.5 μM): 88%
- activity at 5 µM (C-41 tumor cells; C4-1, 5 μM): 63%
- activity at 10 µM (C-41 tumor cells; C4-1, 10 μM): 42%
- activity at 20 µM (C-41 tumor cells; C4-1, 20 μM): 41%
- activity at 40 µM (C-41 tumor cells; C4-1, 40 μM): 16%
- Tumor volume (mm^3) ([3]; day 0 after tumor injection): 0 mm^3
- Tumor volume (mm^3) ([3]; day 7 after tumor injection): 0 mm^3
- Tumor volume (mm^3) ([3]; day 10 after tumor injection): 0 mm^3
- Tumor volume (mm^3) ([3]; day 17 after tumor injection): 100 mm^3
- Tumor volume (mm^3) ([3]; day 18 after tumor injection): 175 mm^3
- Tumor volume (mm^3) ([3]; day 20 after tumor injection): 252 mm^3
- Tumor volume (mm^3) ([3]; day 22 after tumor injection): 500 mm^3
- retardation of tumor growth ([3]; versus untreated animals, 50 mg/day orally once a day): approximately 6 days
